Test results: ChEMBL document CHEMBL1157005, “A new structural class of S-adenosylhomocysteine hydrolase inhibitors” (Bioorg Med Chem, 2009)

Legend:
Adenosylhomocysteinase [1] = molecular target: Adenosylhomocysteinase (Plasmodium falciparum 3D7, UniProt P50250); assay: Inhibition of Plasmodium falciparum S-adenosyl-homocysteine hydrolase
Adenosylhomocysteinase [2] = molecular target: T1, Adenosylhomocysteinase (Homo sapiens, UniProt P23526); assay: Inhibition of S-adenosyl-L-homocysteine hydrolase at 50 uM after 10 mins by scintillation counting
Target sequence in this assay (P23526 2-432 limits assumed): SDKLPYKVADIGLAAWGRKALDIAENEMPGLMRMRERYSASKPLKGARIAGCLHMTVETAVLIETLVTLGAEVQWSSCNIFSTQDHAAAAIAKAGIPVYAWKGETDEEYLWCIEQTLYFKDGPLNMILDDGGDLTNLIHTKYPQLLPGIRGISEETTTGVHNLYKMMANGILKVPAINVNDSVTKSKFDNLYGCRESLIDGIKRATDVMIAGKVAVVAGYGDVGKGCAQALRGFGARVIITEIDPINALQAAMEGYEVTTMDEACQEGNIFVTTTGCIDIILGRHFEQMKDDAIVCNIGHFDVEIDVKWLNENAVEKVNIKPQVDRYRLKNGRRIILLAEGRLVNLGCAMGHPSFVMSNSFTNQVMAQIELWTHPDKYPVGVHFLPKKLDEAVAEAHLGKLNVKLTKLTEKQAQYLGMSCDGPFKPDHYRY

Adenosylhomocysteinase [3] = molecular target: T1, Adenosylhomocysteinase; assay: Inhibition of S-adenosyl-L-homocysteine hydrolase at 2 uM after 10 mins by scintillation counting
Target sequence in this assay (P23526 2-432 limits assumed): as above

Adenosylhomocysteinase [4] = molecular target: T1, Adenosylhomocysteinase; assay: Inhibition of S-adenosyl-L-homocysteine hydrolase after 10 mins by scintillation counting
Target sequence in this assay (P23526 whole entry): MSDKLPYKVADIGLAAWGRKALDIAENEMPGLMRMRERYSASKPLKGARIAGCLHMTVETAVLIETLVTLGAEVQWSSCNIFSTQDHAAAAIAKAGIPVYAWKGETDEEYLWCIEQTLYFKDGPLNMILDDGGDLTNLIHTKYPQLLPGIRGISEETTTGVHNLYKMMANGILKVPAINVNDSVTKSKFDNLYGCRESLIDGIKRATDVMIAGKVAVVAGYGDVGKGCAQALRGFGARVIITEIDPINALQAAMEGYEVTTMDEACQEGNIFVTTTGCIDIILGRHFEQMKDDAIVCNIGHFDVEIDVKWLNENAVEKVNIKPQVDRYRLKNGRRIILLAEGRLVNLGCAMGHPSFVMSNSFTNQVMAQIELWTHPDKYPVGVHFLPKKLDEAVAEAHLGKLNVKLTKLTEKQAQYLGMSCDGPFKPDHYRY

Adenosylhomocysteinase [5] = molecular target: T2, Adenosylhomocysteinase (Rattus norvegicus, UniProt P10760); assay: Inhibition of S-adenosyl-L-homocysteine hydrolase in intact rat hepatocytes; format: cell-based, Hepatocyte
T2 sequence (P10760 whole entry): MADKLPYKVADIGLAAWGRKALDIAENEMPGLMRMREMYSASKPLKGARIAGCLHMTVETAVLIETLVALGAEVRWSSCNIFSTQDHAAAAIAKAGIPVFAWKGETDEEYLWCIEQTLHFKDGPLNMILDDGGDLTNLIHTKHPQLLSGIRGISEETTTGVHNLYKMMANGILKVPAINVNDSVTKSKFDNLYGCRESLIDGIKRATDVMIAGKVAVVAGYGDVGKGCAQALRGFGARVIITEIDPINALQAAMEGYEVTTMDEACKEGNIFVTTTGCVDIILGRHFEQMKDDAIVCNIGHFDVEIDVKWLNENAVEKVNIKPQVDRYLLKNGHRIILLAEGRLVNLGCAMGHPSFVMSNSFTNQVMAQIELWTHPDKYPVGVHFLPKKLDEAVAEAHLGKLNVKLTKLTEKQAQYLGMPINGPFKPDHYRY

Adenosylhomocysteinase (Plasmodium falciparum 3D7, UniProt P50250), sequence (P50250 whole entry): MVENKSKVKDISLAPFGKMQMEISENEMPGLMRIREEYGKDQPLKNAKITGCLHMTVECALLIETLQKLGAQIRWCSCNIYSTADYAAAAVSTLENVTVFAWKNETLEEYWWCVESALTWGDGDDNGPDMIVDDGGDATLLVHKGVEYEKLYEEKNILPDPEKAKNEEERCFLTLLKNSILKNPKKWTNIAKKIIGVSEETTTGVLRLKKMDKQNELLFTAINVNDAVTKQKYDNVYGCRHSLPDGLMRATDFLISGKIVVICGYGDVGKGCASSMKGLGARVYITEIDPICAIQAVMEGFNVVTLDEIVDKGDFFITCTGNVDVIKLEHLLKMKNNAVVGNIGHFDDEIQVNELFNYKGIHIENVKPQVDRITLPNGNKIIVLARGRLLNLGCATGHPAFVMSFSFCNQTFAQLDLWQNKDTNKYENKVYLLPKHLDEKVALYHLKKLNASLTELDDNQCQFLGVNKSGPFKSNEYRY

Structure (SMILES) | inhibition (Adenosylhomocysteinase [2]) | inhibition (Adenosylhomocysteinase [3]) | IC50 (Adenosylhomocysteinase [4]) | also measured
Nc1ncnc2c1ncn2[C@@H]1C[C@H](O)[C@@H](O)[C@H]1O [NORARISTEROMYCIN] | – | – | – | IC50 (Adenosylhomocysteinase [1]): 1100 nM
CCCCCOc1cc(Cn2cnc3c(N)ncnc32)cc(O)c1O | 47% | 12% | – | –
Nc1ncnc2c1ncn2Cc1cc(OCC2CCCCC2)cc(O)c1O | – | – | 400 nM | –
Nc1ncnc2c1ncn2Cc1cc(O)c(O)c(OCc2ccccc2)c1 | 70% | 12% | – | –
Nc1ncnc2c1ncn2C[C@@H](O)[C@@H](O)C(=O)O [ERITADENINE] | – | – | – | IC50 (Adenosylhomocysteinase [5]): 30 nM

The next lines start with results.

inhibition (Adenosylhomocysteinase [2]) | inhibition (Adenosylhomocysteinase [3]) | IC50 (Adenosylhomocysteinase [4]) | Structure (SMILES) | also measured
– | – | 40000 nM | C=C1CCC[C@H]2[C@](C)(CC3=C(O)C(=O)C=C(OC)C3=O)[C@@H](C)CC[C@]12C [ILIMAQUINONE] | –
– | – | < 20000 nM | COC1=CC(=O)C(O)=C(C[C@@]2(C)[C@@H]3CCC[C@H](COC(=O)CCCCCNC(=O)OC(C)(C)C)[C@@]3(C)CC[C@@H]2C)C1=O | –
– | – | > 250000 nM | C=C1[C@H](OC(=O)CCCCCNC(=O)OC(C)(C)C)CC[C@H]2[C@](C)(CC3=C(Cl)C(=O)C=C(OC)C3=O)[C@@H](C)CC[C@]12C | –
74% | 17% | – | Nc1ncnc2c1ncn2Cc1cc(O)c(O)c(OCC2CCCCC2)c1 | –
